What all share (test): NCI-60 cell line screen, 48 h
In test [1] the test system is HCT-116 colon.
Test [2] concerns IGROV1 ovarian.
Test [3] relates to KM12 colon.
Test [4] concerns M14 melanoma.
Test [5] relates to OVCAR-4 ovarian.
Test [6] deals with SF-268 CNS.
For test [7], the system named is SK-MEL-2 melanoma.
Test [8] has as its system SK-MEL-5 melanoma.
The test system of test [9] is UACC-62 melanoma.
The subject of test [10] is UO-31 renal.

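Step 1: Grow cells in 96-well plates. Step 2: Expose to compound for 48 hours at 5 concentrations. Step 3: Interpolate endpoints linearly; if unreached, use highest concentration. GI50 = concentration required for 50% inhibition of growth. At the TGI there is no net growth.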

In the case of `O=C(OC[C@H]1O[C@@H](OC(=O)c2cc(O)c(O)c(O)c2)[C@H](OC(=O)c2cc(O)c(O)c(O)c2)[C@@H](OC(=O)c2cc(O)c(O)c(O)c2)[C@@H]1OC(=O)c1cc(O)c(O)c(O)c1)c1cc(O)c(O)c(O)c1`, the TGI is 16.8 µM in test [1]; above 100 µM in test [2]; 6.65 µM in [3]; 24.4 µM in test [4]; 41.1 µM in [5]; 33.7 µM in test [6]. The TGI in test [7] was determined as 26.4 µM; in test [8], 24.2 µM; in test [9], 6.44 µM; in [10] it was 19.2 µM.
Turning to `CCOC(=O)[C@H]1Nc2ccc(OC)cc2C2c3ccccc3CC21` (stereo not given in full), the TGI in test [1], in [2], in [3], in test [4], in test [5] and in test [6] was above 100 µM throughout. In addition, the TGI in test [7], in [8], in test [9] and in test [10] was above 100 µM throughout.
In the case of `COC(=O)c1c(-c2ccccc2)sc(-c2cccc3ccccc23)c1C(=O)OC`, the TGI in [1], in [2], in [3], in [4], in [5] and in test [6] was above 100 µM each time. The TGI in [7], in test [8], in test [9] and in [10] was above 100 µM in each case.
With `N#C[C@@H]1C(n2ccc(N)nc2=O)O[C@H](CO)[C@H]1O` (stereo not given in full), the GI50 in [1] was 2.66 µM; in test [2] it was above 100 µM; in test [3] it was above 100 µM; in [4] it was 2.97 µM; in test [5], above 100 µM; in [6] it was 22.3 µM. Moreover, the GI50 was above 100 µM in test [7], 38.3 µM in test [8], 28 µM in test [9] and 6.18 µM in test [10]. Besides, the TGI in test [1], in test [2], in test [3], in test [4], in test [5] and in test [6] was above 100 µM each time. The TGI is above 100 µM in test [7], above 100 µM in [8], above 100 µM in test [9] and above 83.4 µM in [10].
Turning to `COc1ccc(Cn2c(Cl)c(/C=C3/C(=O)Nc4ccccc43)c3cc(OC)c(C)cc32)cc1`, the GI50 in test [1] is 3.77 µM; in [2] it was 13.3 µM; in test [3] it was 3.99 µM; in test [4], 3.27 µM; in [5], 4.01 µM; in [6], 8.94 µM. For the same compound, the GI50 is 19.8 µM in test [7], 2.44 µM in [8], 2.17 µM in test [9] and 5.82 µM in test [10]. Moreover, the TGI in [1] is 39.1 µM; in [2] it was above 100 µM; in test [3], 23.8 µM; in [4], 15 µM; in [5] it was above 100 µM; in test [6], above 100 µM. For the same compound, the TGI in [7] is above 100 µM; in test [8] it was 16 µM; in test [9] it was 18.7 µM; in [10], above 100 µM.
Turning to `O=[N+]([O-])c1ccc2c(c1)[O][Sn]([I])([I])[O]2`, the GI50 in [1], in [2], in test [3], in test [4], in test [5] and in [6] was above 100 µM throughout. The GI50 in test [7] is above 100 µM; in [8], above 100 µM; in test [9], 52 µM; in [10] it was above 100 µM. The TGI in [1], in [2], in test [3], in test [4], in test [5] and in test [6] was above 100 µM each time. For the same compound, the TGI in [7], in test [8], in [9] and in [10] was above 100 µM in each case.
Consider `Nc1ccc(S(=O)(=O)NCc2nccs2)cc1`, for which the TGI in test [1] is 40.8 µM; in test [2], 56.8 µM; in test [3], 45 µM; in [4] it was 37.2 µM; in test [5] it was 95.7 µM; in test [6], 46.3 µM. Further, the TGI in [7] stood at 37.9 µM; in test [8], 29.6 µM; in test [9], 41.8 µM; in test [10], 55.1 µM.
Consider `CCOC(=O)COS(=O)(=O)C(F)(F)F`, for which the TGI in test [1], in test [2], in test [3], in [4], in test [5] and in test [6] was above 100 µM each time. The TGI in test [7], in test [8], in [9] and in test [10] was above 100 µM throughout.
Consider `CC(C)Oc1cc(O)c2c(c1)OCC=C2CCC(=O)O`, for which the TGI in test [1] was 66.5 µM; in [2], above 100 µM; in test [3], above 100 µM; in test [4] it was 98.6 µM; in test [5], above 100 µM; in test [6], above 100 µM. Moreover, the TGI in test [7] is above 100 µM; in test [8], 36.5 µM; in test [9] it was above 100 µM; in test [10], 89.1 µM.
For the compound `Oc1ccccc1-c1nc2c3ccccc3c3ccccc3c2[nH]1`, the GI50 is 10.5 µM in test [1]; 0.0614 µM in test [2]; 4.32 µM in test [3]; 11.7 µM in [4]; 12.7 µM in test [5]; 10.6 µM in test [6]. Also, the GI50 in [7] was 5.16 µM; in [8], 12.1 µM; in test [9], 3.1 µM; in test [10], 2.28 µM. For the same compound, the TGI was 22.3 µM in [1]; 14.4 µM in [2]; 14.1 µM in test [3]; 24 µM in test [4]; 25.3 µM in [5]; 22.6 µM in [6]. Moreover, the TGI in test [7] is 16.7 µM; in test [8], 24.4 µM; in test [9] it was 12.4 µM; in test [10], 14.6 µM.

The values above are taken from PubChem BioAssay (NCI).
